Measurements: paper PMC3728333, “Development of an Epidermal Growth Factor Derivative with EGFR Blocking Activity” (PLoS ONE, 2013)

Columns and labels:
[1] = tested on: EGFR; settings: ref [30]; cited from earlier work
Excerpt: The binding of EGF through the three interaction sites of EGFR shifts the equilibrium between the two distinct EGFR conformations to the untethered one, enabling the dimerization arm in domain II to interact with an identical dimerization arm of another receptor to form the dimer, [14].

[2] = tested on: EGFR; settings: ref [11], [12], cited from earlier work
Excerpt: (§1) Our group has previously described that the Potato Carboxypeptidase Inhibitor (PCI) is an antagonist of human EGF. PCI is a 39-residue protein folded into a 27-residue globular core stabilized by three disulfide bonds that adopts the same conformation as EGF, the T-Knot scaffold. This similar structure probably accounts for the antagonistic activity.

[3] = tested on: human cancer cell lines; settings: several human cancer cell lines; ref [11], [12]; cited from earlier work
Excerpt: as §1

[4] = tested on: EGFR; settings: ref [39], [40]; cited from earlier work
Excerpt: It is known that activated EGFR traffics from the plasma membrane to the cytoplasm through endocytic vesicles. Then, internalized EGFR can be eventually degraded in lysosomes, or recycled to the plasma membrane. Moreover, several reports have identified additional intracellular destinations for the internalized receptor, including ...

[5] = tested on: MCF-7 cells; assay: Cell proliferation (MTT), MCF-7; type: cell-based, human; settings: MCF-7, 20 and 150 nM, 72 h (3 days), medium without FBS, vs untreated
Protocol: (§2) The optimal cell seeding concentration was previously established for both cell types, as described in the supporting information (Fig S1), in order to maintain the cells in an exponential growth phase along the experiment. The cells were allowed to attach and grow for 72 h in culture medium, then the cells were washed and medium without FBS was added to the cells for 24 h. […] The treatments were removed, and the cells were washed with PBS and incubated for 3 h with 100 μl of fresh culture medium together with 10 μl of MTT (3-(4,5-dimethylthiazol-2-yl)-2,5-diphenyltetrazolium bromide) (Sigma-Aldrich, St. Louis, MO, USA). Medium was discarded and dimethyl sulfoxide (DMSO) (Sigma-Aldrich, St. Louis, MO, USA) was added to each well to dissolve the purple formazan crystals. Plates were agitated at room temperature for 10 min and the absorbance of each well was determined with an absorbance microplate reader (ELx800, BioTek, Winooski, VT, USA) at a wavelength of 570 nm. Three replicates were used for each treatment. The cell viability was determined as a percentage of the untreated control cells, by dividing the mean absorbance of each treatment by the mean absorbance of the untreated cells.

[6] = tested on: Caco-2 cells; assay: Cell proliferation (MTT), Caco-2; type: cell-based, human; settings: Caco-2, any concentration tested (10, 20 and 150 nM), 96 h (4 days), medium without FBS, vs untreated
Protocol: as §2

In the case of `Cc1ccc(C(=O)Nc2ccc(S(=O)(=O)O)c3cc(S(=O)(=O)O)cc(S(=O)(=O)O)c23)cc1NC(=O)c1cccc(NC(=O)Nc2cccc(C(=O)Nc3cc(C(=O)Nc4ccc(S(=O)(=O)O)c5cc(S(=O)(=O)O)cc(S(=O)(=O)O)c45)ccc3C)c2)c1` [suramin], the “interference with hEGF-EGFR interaction” value [1] is listed as “prevents hEGF from interacting with EGFR at site 3”.

For “Potato Carboxypeptidase Inhibitor (QQHADPICNKPCKTHDDCSGAWFCQACWNSARTCGPYVG; UniProt P01075 1-39, looked up) [PCI, 39-residue protein folded into a 27-residue globular core stabilized by three disulfide bonds]”, the “affinity for EGFR (in words)” value ([2]; earlier work) is given as “very low”, the EGFR activation [2] is given as “inhibited EGFR activation” and the EGFR down regulation [2] is given as “induced the down regulation of the receptor”. For the same molecule, the “competition with EGF for binding to EGFR” value [2] was “competed with EGF for binding to EGFR”, the “effective concentration compared to EGFt/hEGF (in words)” value [2] was “one order of magnitude higher (μM)” and the “anti-proliferative activity in vitro” value [3] was “showed anti-proliferative activity in vitro in several human cancer cell lines”.

In the case of TGF-α: EGFR native ligand, the “stability of binding to EGFR at pH of endosomes” value [4] is given as “rapidly dissociates from the receptor when exposed to the low pH of endosomes”.

For human Epidermal Growth Factor [hEGF], the “cell proliferation (in words)” value [5] is given as “proliferative effect”, the “cell proliferation (in words)” value [6] is given as “moderated but significant proliferative effect” and the “stability of binding to EGFR at pH of endosomes” value [4] is given as “relatively more stable at the pH of endosomes”.
